What follows are molecules tested on GUMC-403 (assay: viability at highest tested concentration (max response) relative to DMSO (% of DMSO control); higher = less cytotoxic). Conditions: library / dose series: MIPE library, 11-point 1:3 dilution; top concentration 23 µM; 48 h.
Summary of the method: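 The value is viability at the highest tested concentration, expressed relative to vehicle control. Patient-derived GUMC-403 papilloma cells, grown by conditional reprogramming, were seeded at 700/well in 5 μL F + Y medium in 1536-well plates. After an overnight incubation at 37 °C, they received 23 nL of compound by pin tool for 48 h. Readout was CellTiter-Glo luminescence on a ViewLux, normalised to vehicle wells (100%) and empty wells (0%).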
Molecule `CCCCCCCCCCCCCCCCCCOP(=O)([O-])OC1CC[N+](C)(C)CC1` has a viability of 127. In the case of `NC/1=N/C(=O)N(C[C@@H](CO)OC[P](O)(O)=O)/C=C1`, the viability is reported as 104.

Same assay, conditions: library / dose series: MIPE library, 11-point 1:3 dilution; top concentration 46.1 µM; 48 h
Molecule `CCCCC(C)(C)[C@H](O)/C=C/[C@H]1[C@H](O)CC(=O)[C@@H]1C/C=C\CCCC(=O)O` has a viability of 104. For `CN[S+](=O)([O-])Cc1ccc2[nH]cc(CCN(C)C)c2c1`, the viability was 126. `C[C@@H]1CC[C@H]2[C@@H](C)C(=O)O[C@@H]3O[C@@]4(C)CC[C@@H]1[C@]32OO4` gave a viability of 109. For `COC1=CC=C2C(=CC=NC2=C1)OC3=CC=C(NC(=O)\C4=C(C)\N(CC(C)(C)O)N(C4=O)C5=CC=CC=C5)C=C3F`, the viability was 80.3. For `NC(=O)Nc1cc(-c2ccc(CN3CCOCC3)cc2)sc1C(N)=O`, the viability was 70.6. `CN(CC#C)C/C1=C/C2=CC=CC=C2OC3=CC=CC=C13` showed a viability of 81.4. Molecule `CC(C)n1cnc2c(NCCCCCCNC(=O)OC(C)(C)C)nc(NCCO)nc21` has a viability of 107. Molecule `NCCc1ccc(O)c(O)c1` has a viability of 108. For `CCC(C)N1\N=C/N(C1=O)C2=CC=C(C=C2)N3CCN(CC3)C4=CC=C(OC[C@H]5CO[C@@](C[N]6C=NC=N6)(O5)C7=CC=C(Cl)C=C7Cl)C=C4` (stereo partly drawn), the viability was 101. For `Cc1cccc(Nc2ccncc2[S+](=O)([O-])NC(=O)NC(C)C)c1`, the viability was 108. `CC[C@@]1(O)C[C@H](O[C@H]2C[C@H](N(C)C)[C@H](O[C@H]3C[C@H](O)[C@H](O[C@H]4CCC(=O)[C@H](C)O4)[C@H](C)O3)[C@H](C)O2)c2c(cc3c(c2O)C(=O)c2c(O)cccc2C3=O)[C@H]1C(=O)OC` was tested, and the viability was 83.4. With `CCC(C)(C)c1ccc(CC(C)CN2C[C@@H](C)O[C@@H](C)C2)cc1` (stereo partly drawn) the viability was 96.2. `COc1cc(N[S+](=O)([O-])c2ccc(N)cc2)nc(OC)n1` was tested, and the viability was 142. For `NC\1=N\C(=O)N(\C=C1F)[C@H]2C[C@H](O)[C@@H](CO)O2`, the viability was 108. For `CC(C)(C)/[N+]([O-])=C/c1ccc([S+](=O)([O-])[O][Na])cc1[S+](=O)([O-])[O][Na]`, the viability was 84.5. For `C\C1=N\N=C(\C2=CC=C(N)C=C2)C3=CC4=C(OCO4)C=C3C1`, the viability was 132. `OC1=C(Cl)C=C(N\C2=C(\C(=O)NC2=O)C3=C(C=CC=C3)[N+]([O-])=O)C=C1` showed a viability of 103. `CC(=O)OCC(=O)[C@@]12OC(C)(C)O[C@@H]1C[C@H]3[C@@H]4C[C@H](F)C/5=C/C(=O)/C=C\[C@]5(C)[C@@]4(F)[C@@H](O)C[C@]23C` gave a viability of 116. Molecule `Cc1c(-c2cccc3c(CCCOc4cccc5ccccc45)c(C(=O)O)n(Cc4cccnc4)c23)c(COc2ccc(N3CCN([S+](=O)([O-])N(C)C)CC3)cc2)nn1C` has a viability of 90.8. `CN1CCN(c2cccc(Nc3nc4c(-c5ccc([S+](C)(=O)[O-])cc5)cccn4n3)c2)CC1` was tested, and the viability was 125. `Oc1ccc(-c2nc(-c3ccncc3)c(-c3ccc(F)cc3)[nH]2)cc1` gave a viability of 102. `OC[C@H]1OC(O)C[C@@H](O)[C@@H]1O` (stereo partly drawn) gave a viability of 126. With `CCCCCCCCCCCCCCCC(=O)OC[C@@H](NC(=O)C(Cl)Cl)[C@H](O)c1ccc([N+](=O)[O-])cc1` the viability was 130. `COc1ccc2nc3cc(Cl)ccc3c(Nc3cc(CN4CCCC4)c(O)c(CN4CCCC4)c3)c2n1` gave a viability of 116. `Nc1nnc(-c2cccc(Cl)c2Cl)c(N)n1` showed a viability of 82.5. `OC(=O)\C1=C\N(C2CC2)C3=CC(=C(F)C=C3C1=O)N4CCNCC4` showed a viability of 105. Molecule `CCn1c(-c2nonc2N)nc2cnc(Oc3cccc(NC(=O)c4ccc(OCCN5CCOCC5)cc4)c3)cc21` has a viability of 65.4. Molecule `Cc1cccc(Nc2nc(N[C@@H]3CCCC[C@@H]3N)ncc2C(N)=O)c1` has a viability of 66.7. For `CN(C)c1nc(Cc2ccc(NC(=O)c3ccc4ccccc4c3)cc2)nc(Cl)c1CC(=O)O`, the viability was 114. Work on `CC1=C(/C=C/C(C)=C/C=C/C(C)=C\C(=O)O)C(C)(C)CCC1` yielded a viability of 90. With `C=C[C@H]1CN2CCC1C[C@H]2[C@H](O)c1ccnc2ccc(OC)cc12` (stereo partly drawn) the viability was 98.4. `O=C(NOC[C@H](O)CO)c1ccc(F)c(F)c1Nc1ccc(I)cc1F` showed a viability of 101. For `C1CCC(C(CC2CCCCN2)C2CCCCC2)CC1` (stereo not drawn), the viability was 85.1. With `O=C(Nc1cc2cc[nH]c2cn1)c1ccccc1` the viability was 55.2. For `O=C(Nc1ccccc1)Nc1ccc(-c2ccc(C(=O)[C@@H]3CCC[C@H]3C(=O)O)cc2)cc1`, the viability was 128. Work on `N[C@@H](C(=O)N[C@H]1[C@H]2SC\C(=C(/N2C1=O)C(O)=O)Cl)C3=CC=CC=C3` yielded a viability of 122. `CO[C@H]1/C=C/O[C@@]2(C)Oc3c(C)c(O)c4c(O)c(c5c(nc6cc(C)ccn65)c4c3C2=O)NC(=O)/C(C)=C\C=C\[C@H](C)[C@H](O)[C@@H](C)[C@@H](O)[C@@H](C)[C@H](OC(C)=O)[C@@H]1C` showed a viability of 133. Molecule `COc1ccc([S+](=O)([O-])Nc2cccnc2Nc2ccc(O)cc2)cc1` has a viability of 99.9. `OC(Cn1cncn1)(Cn1cncn1)c1ccc(F)cc1F` showed a viability of 130. In the case of `O=c1oc2c(O)c(O)cc3c(=O)oc4c(O)c(O)cc1c4c23`, the viability is reported as 143. With `COC1=CC=CC(=C1N)\C2=C\C(=O)C3=C(O2)C=CC=C3` the viability was 57.1. For `O=C(NC1CC1)c1cccc(-c2ccc3c(NC(=O)C4CC4)n[nH]c3c2)c1`, the viability was 110. With `C[S+](=O)([O-])OCCCCO[S+](C)(=O)[O-]` the viability was 134. In the case of `N[S+](=O)([O-])c1cc2c(cc1Cl)NCN[S+]2(=O)[O-]`, the viability is reported as 108. For `C[C@H](CCC(=O)O)[C@H]1CC[C@H]2[C@@H]3[C@H](O)C[C@@H]4C[C@H](O)CC[C@]4(C)[C@H]3CC[C@]12C`, the viability was 128. With `CCCN[C@H]1CCc2nc(N)sc2C1` the viability was 142. In the case of `Cc1c[nH]c(-c2cnc(NCCNc3ccc(C#N)cn3)nc2-c2ccc(Cl)cc2Cl)n1`, the viability is reported as 77.1. In the case of `Cc1c(NC(=O)OC[C@@H]2COCCN2)cn2ncnc(Nc3ccc4c(cnn4Cc4cccc(F)c4)c3)c12`, the viability is reported as 75.8. For `Cl.Cl.Cl.O[C@@H](COc1cccc2ncccc12)CN1CCN([C@@H]2c3ccccc3[C@@H]3[C@H](c4ccccc42)C3(F)F)CC1`, the viability was 70.9. `CNC1CCC(N(Cc2cccc(-c3ccncc3)c2)C(=O)c2sc3c(F)ccc(F)c3c2Cl)CC1` (stereo not drawn) gave a viability of 75.5. `COc1ccc2c(c1)c(CC(=O)OCC(=O)O)c(C)n2C(=O)c1ccc(Cl)cc1` was tested, and the viability was 90.3. `CC(C)OC(=O)[C@H](C)N[P@](=O)(OC[C@H]1O[C@@H](N2\C=C/C(=O)NC2=O)[C@](C)(F)[C@@H]1O)OC3=CC=CC=C3` gave a viability of 107. For `CC/1=C(/N2[C@H](SC1)[C@H](NC(=O)[C@H](N)\C3=C\C\C=C/C3)C2=O)C(O)=O`, the viability was 121. `O=[S+]([O-])(CCSSCC[S+](=O)([O-])[O][Na])[O][Na]` showed a viability of 119. With `Clc1ccc(COC(Cn2ccnc2)c2ccc(Cl)cc2Cl)c(Cl)c1` (stereo not drawn) the viability was 92.5. `Cc1nnc(C(C)C)n1[C@@H]1C[C@H]2CC[C@@H](C1)N2CC[C@H](NC(=O)C1CCC(F)(F)CC1)c1ccccc1` gave a viability of 140. `CCC1(C)CC(=O)NC1=O` (stereo not drawn) was tested, and the viability was 94.5. `CNC(=O)c1ccc2cc(C3(O)CCn4cncc43)ccc2c1` (stereo not drawn) showed a viability of 106. Molecule `Cn1cnc(-c2cc3nccc(Oc4ccc(NC(=S)NC(=O)Cc5ccccc5)cc4F)c3s2)c1` has a viability of 96.8. Molecule `C[C@H](c1ccc(F)cc1CCCC(=O)O)N(c1cc(F)ccc1F)[S+](=O)([O-])c1ccc(Cl)cc1` has a viability of 93.9. With `CC(C)c1cccc(C(C)C)c1O` the viability was 108. With `CCCc1cc(C(N)=S)ccn1` the viability was 112. Molecule `Cc1ccc(F)c(NC(=O)Nc2ccc(-c3cccc4[nH]nc(N)c34)cc2)c1` has a viability of 50.7. In the case of `CN1/C=C(\N=C(NC2=CC=C(C=C2)C(=O)N3CCOCC3)/C1=O)/C4=C(C)C(=CC=C4)NC(=O)C5=CC=C(C=C5)C(C)(C)C`, the viability is reported as 117. In the case of `O=C([O-])C[C@H](O)C[C@H](O)/C=C/c1c(C2CC2)nc2ccccc2c1-c1ccc(F)cc1`, the viability is reported as 92.1. Work on `CCOC(=O)N1CCN(/[N+]([O-])=N/Oc2ccc([N+](=O)[O-])cc2[N+](=O)[O-])CC1` yielded a viability of 118. `C[C@H]([C@H](O)CCC(C)(C)O)[C@H]1CC[C@@]2(O)C/3=C/C(=O)[C@@H]4C[C@@H](O)[C@@H](O)C[C@]4(C)[C@H]3CC[C@]12C` gave a viability of 120. `CCc1cc(-c2n[nH]c(C)c2-c2ccc3c(c2)OCCO3)c(O)cc1O` was tested, and the viability was 88.7. `CN(C)/N=N/c1nc[nH]c1C(N)=O` was tested, and the viability was 123. `CC(C(C)N1CC(=O)NC(=O)C1)N1CC(=O)NC(=O)C1` (stereo not drawn) showed a viability of 109. For `CC(=O)O[C@@]1(CC[C@H]2[C@@H]3\C=C(C)/C4=C/C(=O)CC[C@]4(C)[C@H]3CC[C@]12C)C(C)=O`, the viability was 127. Work on `CCOP(=O)(OCC)C(C)NC(=O)N(CCCl)N=O` (stereo not drawn) yielded a viability of 111. For `CCN(C)C(=O)Oc1cccc([C@H](C)N(C)C)c1`, the viability was 125. Work on `Nc1ncnc2c1c(-c1cccc(OCc3ccccc3)c1)cn2C1CC(CN2CCC2)C1` (stereo not drawn) yielded a viability of 98.4. Molecule `CC(=O)O.Cc1c(-c2ccc(O)cc2)n(Cc2ccc(OCCN3CCCCCC3)cc2)c2ccc(O)cc12` has a viability of 130. `CCC(C)N(C)C(=O)c1cc2ccccc2c(-c2ccccc2Cl)n1` (stereo not drawn) gave a viability of 96.7. Work on `CCN1\C=C(C(O)=O)/C(=O)C2=C1C=C(N3CCN(C)CC3)C(=C2)F` yielded a viability of 115. In the case of `CCn1c(C(=O)N(C2CC2)C2CC2)cc2c3c(ncn3C)c(Nc3cc(C)n(C)n3)nc21`, the viability is reported as 118. In the case of `Fc1cc(-c2cccc3ncc(-c4cnn(C5CCNCC5)c4)nc23)cc(F)c1CN1CCOCC1`, the viability is reported as 108. `COc1ccc2c(c1OC)CN1CCc3cc4c(cc3C1C2)OCO4` (stereo not drawn) showed a viability of 121. Molecule `NCC1CCC(C(=O)O)CC1` (stereo not drawn) has a viability of 115.

From the supplement of paper PMC6723410
